The results in this text go back to paper PMC10537268 (Plants, 2023).

In brackets after ≈: the same amount, converted by molar mass. Several values for one entry are separate records, joined by “and”; a condition that tells them apart may be missing. Equal entries are not always repeated.

Series [1] deals with T1, COX-2 (Homo sapiens, UniProt P35354).
T1 sequence (P35354 18-604): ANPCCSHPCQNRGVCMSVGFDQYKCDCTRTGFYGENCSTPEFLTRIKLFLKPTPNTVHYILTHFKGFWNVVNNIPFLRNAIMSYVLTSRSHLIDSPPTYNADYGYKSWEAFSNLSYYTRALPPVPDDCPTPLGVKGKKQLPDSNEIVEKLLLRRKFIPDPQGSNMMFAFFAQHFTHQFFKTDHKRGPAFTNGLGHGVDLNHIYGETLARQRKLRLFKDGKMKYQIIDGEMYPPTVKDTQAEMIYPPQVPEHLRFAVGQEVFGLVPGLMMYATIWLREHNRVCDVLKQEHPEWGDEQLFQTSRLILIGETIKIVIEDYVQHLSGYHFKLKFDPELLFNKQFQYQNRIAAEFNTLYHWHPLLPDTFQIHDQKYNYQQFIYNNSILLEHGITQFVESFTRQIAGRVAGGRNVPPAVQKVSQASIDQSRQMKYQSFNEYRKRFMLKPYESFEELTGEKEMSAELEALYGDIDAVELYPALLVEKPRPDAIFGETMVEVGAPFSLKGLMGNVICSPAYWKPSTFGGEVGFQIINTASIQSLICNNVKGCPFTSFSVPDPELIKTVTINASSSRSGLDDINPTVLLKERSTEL
Briefly: biochemical. On the procedure: (§1) The essential oils and geraniol were tested using a commercial COX-1 (Ovine), COX-2 (Human recombinant), and fluorometric inhibitory screening assay kit following the instructions recommended by the manufacturer (Cayman test kit 700100, Cayman Chemical Company, Ann Arbor, MI, USA). Briefly, 150 µL of assay buffer (0.1 M Tris-HCl pH 8.0), 10 µL of Heme, 10 µL of enzyme (COX-1 or COX-2), and 10 µL of the test sample were added to the wells. After 5 min at 25 °C, 10 µL of ADHP (10-acetyl-3 7-dihydroxy phenoxazine) and 10 µL of arachidonic acid were added to initiate the reaction. The plate was incubated at room temperature for 2 min followed by fluorescence measured at 530 nm (excitation) and 585 nm (emission). Stock solution of the essential oils was prepared with DMSO 1%. The triplicate experimental data are expressed as mean ± standard deviation (SD). For the percentage inhibition (%I) calculations, the formula below was used:t% I = [(Initial Activity − Sample Activity)/Initial Activity] × 100

For series [2], the target named is T2, ACE2 (Homo sapiens, UniProt Q9BYF1).
T2 construct: purchased BioVision K310
Briefly: ACE2 enzyme inhibition assay (BioVision kit). The class given is biochemical. The note with it: read-out: ACE2 inhibition. The procedure:
The ACE2 enzyme inhibition assay was performed using the commercially available kit (BioVision, UK, Catalog number: K310). Stock solutions of the test samples were prepared in DMSO (1%, v/v). Essential oils (20 μg/mL) and geraniol (5 μg/mL) were dispensed into a 96-well plate followed by addition of ACE2 enzyme solution (blank excluded). The reaction was started by adding 40 µL of substrate solution to each well. The reaction mixture was measured at Ex/Em = 320/420 nm wavelength using the SpectraMax i3, fluorescent microplate reader (Molecular Devices, CA, USA). The results are reported as % inhibition values, which were obtained for all samples from triplicate experiments.

Series [3] concerns the target T3, COX-1 (Ovis aries, UniProt P05979).
T3 construct: purchased Cayman Chemical Company 700100
T3 sequence (P05979 25-600): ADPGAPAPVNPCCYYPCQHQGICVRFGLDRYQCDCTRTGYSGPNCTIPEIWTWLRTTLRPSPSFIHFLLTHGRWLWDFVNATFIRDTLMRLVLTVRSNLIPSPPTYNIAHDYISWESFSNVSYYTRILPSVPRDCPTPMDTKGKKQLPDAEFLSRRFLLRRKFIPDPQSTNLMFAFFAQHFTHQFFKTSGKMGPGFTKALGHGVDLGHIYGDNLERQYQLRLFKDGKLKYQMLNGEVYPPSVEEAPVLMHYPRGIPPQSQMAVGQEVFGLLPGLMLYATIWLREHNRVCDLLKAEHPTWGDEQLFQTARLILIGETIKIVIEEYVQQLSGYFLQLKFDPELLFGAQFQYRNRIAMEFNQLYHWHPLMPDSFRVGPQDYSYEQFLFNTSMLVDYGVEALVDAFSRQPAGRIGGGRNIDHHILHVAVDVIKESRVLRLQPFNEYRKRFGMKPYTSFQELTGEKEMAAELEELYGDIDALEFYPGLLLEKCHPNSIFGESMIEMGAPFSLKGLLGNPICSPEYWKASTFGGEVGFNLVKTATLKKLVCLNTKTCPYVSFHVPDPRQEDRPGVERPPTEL
Briefly: COX-1 fluorometric inhibitory screening assay kit. The format is biochemical, Ovine. On the procedure:
as §1

Series [4] has as its system PC3 cells. Briefly: MTT cytotoxicity assay, PC3. The format is cell-based. The note with it: Homo sapiens, PC-3, 24 h, read-out: IC50 PC3 cytotoxicity. On the procedure:
(§2) Human breast cancer cell lines MCF7 (ATCC HTB-22), human prostate cancer cell lines PC3 (ATCC CRL-1435), human lung cancer cell lines A549 (ATCC CCL-185), and human embryonic kidney cell lines HEK293 (ATCC CRL-1573) were cultured in Dulbecco’s Modified Eagle’s Medium/High Glucose (DMEM, High Glucose) or Dulbecco’s Modified Eagle’s Medium/F12 (DMEM, F12) at 37 °C in a humidified 5% CO2 atmosphere. The media were supplemented with 10% fetal bovine serum (FBS), 1% (v/v) antibiotic-antimycotics solution (100 U/mL of penicillin, 100 μg/mL of streptomycin, and 0.25 μg/mL of amphotericin B), and 1% (v/v) non-essential amino acids.
(§3) Cells were cultured for 24 h in 96-well plates containing 10^5 cells per well before exposure. The essential oils and geraniol were dissolved in DMSO (<1%) and diluted with respective medium for use in MTT assay (0.1–2000 µg/mL concentration range). After incubation, the […] and washed with D-PBS followed by addition of MTT (30 µL). After a 4 h incubation period, 150 µL of DMSO was added and mixed using a shaker at 25 °C. This was followed by measurement of the absorbances a 540 nm using the microplate reader. All experiments were performed in triplicate.
On the technique in general: Formazan colour is commonly taken as a measure of viable cells.

The test system of series [5] is A549 cells. Briefly: MTT cytotoxicity assay, A549. The format is cell-based. The note with it: Homo sapiens, A549, 24 h, read-out: IC50 A549 cytotoxicity. The procedure: as §2, §3
Series [6] deals with T4, AChE (Electrophorus electricus, UniProt O42275).
T4 construct: purchased Sigma Aldrich
Briefly: Anticholinesterase activity, modified Ellman method (AChE). The class given is biochemical. On the procedure: Cholinesterase inhibition was determined spectrophotometrically through the modified Ellman method. Ethanol was used as negative control. Sodium phosphate buffer, AChE enzyme stock solution, the essential oils, and geraniol were mixed and allowed to incubate for 30 min at room temperature DTNB and acetylthiocholine were added to initiate the enzyme reaction.
(In general: In Ellman's method for cholinesterases, released thiocholine reacts with DTNB.)

The nature of series [7]: MTT cytotoxicity assay, HEK293. The format is cell-based. Conditions: human, HEK293 cells, healthy cell line, ND: Not detected. On the procedure: as §2, §3
Series [8] relates to MCF7 cells. Briefly: MTT cytotoxicity assay, MCF7. The class given is cell-based. The note with it: Homo sapiens, MCF7, 24 h, read-out: IC50 MCF7 cytotoxicity. On the procedure:
as §2, §3

Setting [9] is: human recombinant COX-2, fluorometric kit.

T2 sequence (Q9BYF1 18-805): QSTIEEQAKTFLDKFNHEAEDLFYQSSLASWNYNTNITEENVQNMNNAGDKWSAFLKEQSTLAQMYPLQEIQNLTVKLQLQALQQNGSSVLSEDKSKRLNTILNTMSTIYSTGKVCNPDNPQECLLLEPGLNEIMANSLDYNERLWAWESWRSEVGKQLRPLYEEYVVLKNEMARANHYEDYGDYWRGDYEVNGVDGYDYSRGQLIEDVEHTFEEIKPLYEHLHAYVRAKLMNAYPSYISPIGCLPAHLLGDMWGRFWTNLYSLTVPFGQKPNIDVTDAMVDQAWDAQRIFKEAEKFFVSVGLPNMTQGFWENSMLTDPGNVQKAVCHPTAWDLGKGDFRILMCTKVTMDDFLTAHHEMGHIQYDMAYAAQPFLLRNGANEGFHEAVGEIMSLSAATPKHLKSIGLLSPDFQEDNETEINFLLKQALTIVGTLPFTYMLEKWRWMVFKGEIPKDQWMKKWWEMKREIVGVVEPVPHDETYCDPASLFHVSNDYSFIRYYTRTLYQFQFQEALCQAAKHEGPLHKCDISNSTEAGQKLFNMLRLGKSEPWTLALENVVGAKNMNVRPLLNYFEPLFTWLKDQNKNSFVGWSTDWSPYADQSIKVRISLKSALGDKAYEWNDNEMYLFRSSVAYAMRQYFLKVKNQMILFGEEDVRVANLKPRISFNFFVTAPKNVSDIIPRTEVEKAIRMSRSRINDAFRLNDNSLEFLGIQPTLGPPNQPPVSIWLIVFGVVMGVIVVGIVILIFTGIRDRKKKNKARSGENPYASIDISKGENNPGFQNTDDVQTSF
T4 sequence (O42275 24-633): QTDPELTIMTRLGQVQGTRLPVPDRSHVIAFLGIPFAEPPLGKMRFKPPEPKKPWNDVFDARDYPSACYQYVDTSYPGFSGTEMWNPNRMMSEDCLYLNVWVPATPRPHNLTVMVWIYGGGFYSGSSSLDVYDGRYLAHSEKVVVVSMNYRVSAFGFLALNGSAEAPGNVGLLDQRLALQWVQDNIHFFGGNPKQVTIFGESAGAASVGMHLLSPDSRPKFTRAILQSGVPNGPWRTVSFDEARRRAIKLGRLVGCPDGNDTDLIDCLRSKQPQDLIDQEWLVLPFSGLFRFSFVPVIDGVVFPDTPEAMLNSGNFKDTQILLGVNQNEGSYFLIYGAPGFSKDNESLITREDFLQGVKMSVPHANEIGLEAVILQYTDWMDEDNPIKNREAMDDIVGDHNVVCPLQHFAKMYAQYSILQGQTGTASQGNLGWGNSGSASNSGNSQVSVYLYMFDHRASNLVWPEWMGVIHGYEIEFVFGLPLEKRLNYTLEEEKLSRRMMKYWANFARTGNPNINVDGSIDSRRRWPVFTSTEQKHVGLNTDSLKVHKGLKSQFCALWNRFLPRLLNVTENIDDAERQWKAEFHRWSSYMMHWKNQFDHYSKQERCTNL

In the case of `CC(C)=CCC/C(C)=C/CO` [Geraniol], the “SI (selectivity index)” value in series [1] (COX-2 versus COX-1 IC50) turned out to be 0.72. The IC50 (usually the concentration that gives 50% inhibition) in series [1] (setting [9]) is 52.5 µM and 52.6 µM; in series [3] (IC50 COX-1, ovine COX-1, fluorometric kit), 71.3 µM and 72.4 µM; in series [4] it was 77 ± 2.06 µg/mL (≈ 499 µM); in series [5], 58.9 ± 1.09 µg/mL (≈ 382 µM); in series [6] it was 109 µM; in series [8], 42.8 ± 1.48 µg/mL (≈ 278 µM). Besides, the inhibition – broadly, the change of the read-out against control, counted positive when it falls – at 5 µg/mL in series [2] amounted to 86.3%. Further, in series [7], the IC50 at 24 h was determined as 81.8 ± 1.98 µg/mL (≈ 530 µM).

As for `CC(Cc1ccc(O)c(O)c1)C(C)Cc1ccc(O)c(O)c1` (centres unmarked) [Nordihydroguaretic Acid, Nordihydroguaiaretic acid, reference compound], in series [1] (setting [9]), the “IC50 COX-2” value was found to be 9.1 µg/mL. For the same compound, the “IC50 COX-1” value in series [3] (ovine COX-1, fluorometric kit) is given as 7.1 µg/mL (≈ 23.5 µM).
